{"source": "patent US5830881A", "about": "“L-2'3',dideoxy nucleoside analogs as anti-hepatitus B (HBV) agents” (priority 1996, dated 1998)", "key": {"[1]": {"test_system": "human immunodeficiency virus (HIV)", "conditions": "in words, literature, cited from earlier work"}, "[2]": {"test_system": "Hepatitis B viral infections", "conditions": "in words; prior therapy; cited from earlier work"}, "Hepatitis B virus": {"test_system": "Hepatitis B virus", "conditions": "in words; literature; cited from earlier work"}, "mitochondrial DNA": {"test_system": "mitochondrial DNA", "conditions": "cited from earlier work; for IC50: data from published literature, read-out: Anti-mitochondrial DNA ID50"}, "HBV [3]": {"test_system": "HBV", "conditions": "data from published literature; read-out: Anti-HBV ID50; cited from earlier work"}, "CEM cells [4]": {"test_system": "CEM cells", "conditions": "cited from earlier work; for CC50: data from published literature, 4320 min, read-out: Cytotoxicity ID50"}, "HIV-1 [5]": {"test_system": "HIV-1", "conditions": "data from published literature; read-out: Anti-HIV ID50; cited from earlier work"}, "HBV [6]": {"test_system": "HBV", "test": "Anti-HBV effects: viral DNA from secreted particles of the 2.2.15 human hepatoma cell line carrying HBV (Southern analysis)", "assay_type": "cell-based, Hepatitis B virus", "procedure": "The biological activity of the present compounds was assessed as described by Doong, S-L, et al., Proc. Natl. Acad. Sci. U.S.A 88, 8495-8499 (1991). The human hepatoma cell line carrying the HBV (designated 2.2.15) kindly provided by Dr. G. Acs was used in the study. Price, et al., Proc. Natl. Acad. Sci. U.S.A. 86, 8541 (1989). Briefly, Six day-old cultures were treating with varying concentrations of the drug in the culture medium (Minimum essential medium with Earl's salts and 10% fetal bovine serum). The drug was left in the culture medium for a period of 3 days after which period the medium was aspirated and fresh medium containing the same concentration(s) of the dry was added. At the end of the subsequent 3 day period the culture medium was harvested. The culture medium was processed for obtaining the virions by the polyethylene glycol precipitation method (Doong, et al., supra). Viral DNA thus recovered from the secreted particles was subjected to Southern analysis. Inhibition of the viral replication was determined by the comparison of the viral DNA from drug-treated versus control cultures not treated with the drug."}, "CEM cells [7]": {"test_system": "CEM cells", "test": "Cellular toxicity in T-lymphoblastoic cell line (CEM), cell number 3 days post treatment", "assay_type": "cell-based", "conditions": "in words", "procedure": "(§1) To determine the cellular toxicity of the present compounds, the T-lymphoblastoic cell line (CEM) was used. Cells were subjected to varying concentrations of the drug(s) and cell numbers were determined 3 days post treatment by the method described by Chen, C-H and Cheng, Y-C J. Biol. Chem., 264, 11934 (1989)."}, "[8]": {"test": "Cellular toxicity in T-lymphoblastoic cell line (CEM), cell number 3 days post treatment", "assay_type": "cell-based", "conditions": "human; CEM cells, 3 days; read-out: Cytotoxicity ID50", "procedure": "as §1"}, "in vitro": {"test": "in vitro", "conditions": "human, cem cells"}, "HIV-1 [9]": {"test_system": "HIV-1", "test": "Anti-HIV effects in T-lymphoblastoid cell line MT-2 infected with HIV-1", "assay_type": "cell-based", "conditions": "Human immunodeficiency virus 1, MT2, MT-2 cells, read-out: Anti-HIV ID50", "procedure": "Anti-HIV effects were determined using the T-lymphoblastoid cell line, MT-2 infected with the HIV-1 virus. The inhibition was determined by the method of Larder, B. A., et al., Antimicrob. Agents Chemother., 34, 436 (1990)."}}, "note": "Where two headings read alike, the source gives them in different places.", "data": [{"compound": "OC[C@@H]1CC[C@H](n2cnc3c(O)ncnc32)O1", "note": "[DDI, 2',3'-dideoxyinosine]", "values": [{"measurement": "activity against HIV", "setting": "[1]", "result": "significant activity"}]}, {"compound": "Nc1ncnc2c1ncn2[C@@H]1O[C@H](COP(=O)(O)O)[C@@H](O)[C@@H]1O", "note": "[ara-AMP]", "values": [{"measurement": "success in treatment of hepatitis", "setting": "[2]", "result": "limited success"}]}, {"compound": "Nc1nc2c(ncn2COCCO)c(=O)[nH]1", "note": "[acyclovir]", "values": [{"measurement": "success in treatment of hepatitis", "setting": "[2]", "result": "little, if any, success"}]}, {"compound": "[N-]=[N+]=N[C@H]1C[C@H](n2ccc(=O)[nH]c2=O)O[C@@H]1CO", "note": "[3'-azido-2',3'-dideoxyuridine]", "values": [{"measurement": "activity against HIV", "setting": "[1]", "result": "significant activity"}]}, {"compound": "Cc1cn([C@H]2C[C@H](N=[N+]=[N-])[C@@H](CO)O2)c(=O)[nH]c1=O", "note": "[AZT]", "values": [{"measurement": "success in treatment of hepatitis", "setting": "[2]", "result": "little, if any, success"}]}, {"compound": "O=C(O)P(=O)(O)O", "note": "[foscarnet]", "values": [{"measurement": "success in treatment of hepatitis", "setting": "[2]", "result": "little, if any, success"}]}, {"compound": "Cc1cn([C@H]2C=C[C@@H](CO)O2)c(=O)[nH]c1=O", "note": "[Compound D4T, 3'-deoxy-2',3'-didehydrothymidine]", "values": [{"measurement": "activity against HIV", "setting": "[1]", "result": "significant activity"}]}, {"compound": "Nc1nc(=O)n([C@@H]2CS[C@H](CO)O2)cc1F", "note": "(relative stereo) [(±)5-FSddC]", "values": [{"measurement": "activity against Hepatitis B virus in culture", "setting": "Hepatitis B virus", "result": "potent activity"}]}, {"compound": "2',3'-dideoxy-2',3'-didehydroguanosine [Carbovir]", "values": [{"measurement": "activity against HIV", "setting": "[1]", "result": "significant activity"}]}, {"compound": "Nc1ccn([C@H]2CC[C@@H](CO)O2)c(=O)n1", "note": "[ddC, 2',3'-dideoxycytidine]", "values": [{"measurement": "activity against HIV", "setting": "[1]", "result": "among the most potent inhibitors of HIV"}, {"measurement": "activity against HIV", "setting": "[1]; listed as DDC", "result": "significant activity"}, {"measurement": "IC50", "setting": "mitochondrial DNA", "result": 0.022, "unit": "µM"}, {"measurement": "effects on host mitochondrial DNA", "setting": "mitochondrial DNA; in words", "result": "significant effects on host mitochonrial DNA"}, {"measurement": "IC50", "setting": "HBV [3]", "result": 2.8, "unit": "µM"}, {"measurement": "CC50", "setting": "CEM cells [4]", "result": 10, "unit": "µM"}, {"measurement": "cytotoxicity compared with L-ddC", "setting": "CEM cells [4]; in words, compared with L-ddC", "result": "much more cytotoxic than L-ddC"}, {"measurement": "IC50", "setting": "HIV-1 [5]", "result": 1, "unit": "µM"}]}, {"compound": "Nc1ncnc2c1ncn2[C@H]1C[C@H](F)[C@@H](CO)O1", "note": "[3'-fluoro-2',3'-dideoxyadenosine]", "values": [{"measurement": "activity against HIV", "setting": "[1]", "result": "significant activity"}]}, {"compound": "Cc1cn([C@H]2C[C@H](F)[C@@H](CO)O2)c(=O)[nH]c1=O", "note": "[3'-fluoro-3'-deoxythymidine]", "values": [{"measurement": "activity against HIV", "setting": "[1]", "result": "significant activity"}]}, {"compound": "Nc1ccn([C@H]2C=C[C@@H](CO)O2)c(=O)n1", "note": "[2',3'-dideoxy-2',3'-didehydrocytidine]", "values": [{"measurement": "activity against HIV", "setting": "[1]", "result": "significant activity"}]}, {"compound": "interferon alpha", "values": [{"measurement": "success in treatment of hepatitis", "setting": "[2]", "result": "limited success"}]}, {"compound": "Nc1ccn([C@@H]2CC[C@H](CO)O2)c(=O)n1", "note": "[L-ddC, 1-(2,3-dideoxy-beta-L-ribofuranosyl)cytosine]", "values": [{"measurement": "IC50", "setting": "HBV [6]; Hepatitis B virus, 2.2.15 cells, read-out: Anti-HBV ID50", "result": 0.01, "unit": "µM"}, {"measurement": "inhibition of HBV DNA replication", "setting": "HBV [6]; in words", "result": "efficiently inhibited"}, {"measurement": "activity against HBV", "setting": "HBV [6]; in words, relative activity", "result": "several fold higher activity against HBV"}, {"measurement": "cellular effects", "setting": "CEM cells [7]", "result": "minimal cellular effects"}, {"measurement": "cellular cytotoxicity as compared to ddC", "setting": "CEM cells [7]; compared with ddC", "result": "considerably less"}, {"measurement": "CC50 at 72 h", "setting": "[8]", "result": "54 ± 20", "unit": "µM"}, {"measurement": "IC50", "setting": "in vitro", "result": "> 100", "unit": "µM"}, {"measurement": "IC50", "setting": "HIV-1 [9]", "result": 8, "unit": "µM"}]}, {"compound": "Nc1ccn([C@@H]2CS[C@H](CO)O2)c(=O)n1", "note": "(relative stereo) [(±) SddC, (+) and (-)-2',3'-Dideoxy-3'-thiacytidine]", "values": [{"measurement": "activity against Hepatitis B virus in culture", "setting": "Hepatitis B virus", "result": "potent inhibitors of Hepatitis B virus"}]}, {"compound": "Nc1ncnc2c1ncn2[C@@H]1O[C@H](CO)[C@@H](O)[C@@H]1O", "note": "[adenine arabinoside]", "values": [{"measurement": "success in treatment of hepatitis", "setting": "[2]", "result": "limited success"}]}, {"compound": "Nc1ccn([C@H]2CS[C@@H](CO)O2)c(=O)n1", "note": "(stereo in doubt) [(-)S-ddC, (-)-2',3'-Dideoxy-3'-thiacytidine]", "values": [{"measurement": "activity against Hepatitis B virus in culture", "setting": "Hepatitis B virus", "result": "potent activity"}, {"measurement": "IC50", "setting": "mitochondrial DNA", "result": "> 50", "unit": "µM"}, {"measurement": "IC50", "setting": "HBV [3]", "result": 0.01, "unit": "µM"}, {"measurement": "CC50", "setting": "CEM cells [4]", "result": 50, "unit": "µM"}, {"measurement": "IC50", "setting": "HIV-1 [5]", "result": 2, "unit": "µM"}]}]}
